In patent publication US9919998B2, “Antibacterial agents: Nα-aroyl-N-aryl-phenylalaninamides” (priority 2014, dated 2018):
Converted amounts (≈) assume the structure as drawn. Like-named read-outs stand apart in the source and are kept apart here.

What was measured:
Type in all cases: cell-based
[1] = test system: Mycobacterium tuberculosis H37Rv; test: Microplate Alamar Blue assay (MABA) MIC, M. tuberculosis; conditions: read-out: MIC Mycobacterium tuberculosis H37Rv
From the text: (§1) Minimal inhibitory concentrations (MICs) in Mycobacterium tuberculosis H37Rv and Mycobacterium avium ATCC 25291 were quantified using microplate Alamar Blue assays as described (MABA; [Collins, L. & Franzblau, S. (1997) Microplate Alamar Blue assay versus BACTEC 460 system for high-throughput screening of compounds against Mycobacterium tuberculosis and Mycobacterium avium. Antimicrob. Agents Chemother. 41, 1004-1009]).

[2] = test system: Mycobacterium smegmatis ATCC 19420; test: Broth microdilution MIC, M. smegmatis; conditions: Mycolicibacterium smegmatis
From the text: MICs in Mycobacterium smegmatis ATCC 19420 and Mycobacterium smegmatis ATCC 19420 derivatives were quantified using broth microdilution assays as described [Clinical and Laboratory Standards Institute (CLSI/NCCLS) (2009) Methods for Dilution Antimicrobial Susceptibility Tests for Bacteria That Grow Aerobically; Approved Standard, Eighth Edition. CLIS Document M07-A8 (CLIS, Wayne Pa.)].

[3] = test system: Mycobacterium avium ATCC 25291; test: Microplate Alamar Blue assay (MABA) MIC, M. avium; conditions: ATCC25291, M. avium ATCC 25291
From the text: as §1

[4] = test system: Vero E6 ATCC CRL1586 cells; test: Mammalian-cell cytotoxicity, minimal cytotoxic concentration (CellTiter96)
Method: Minimal cytotoxic concentrations (MCCs) against mammalian cells in culture were determined using Vero E6 ATCC CRL1586 cells and the CellTiter96 assay kit (Promega, Inc.). […]

[5] = ATCC19420, M. smegmatis ATCC 19420, read-out: MIC Mycobacterium smegmatis ATCC 19420
[6] = ATCC19420, broth microdilution assays, M. smegmatis ATCC19420, read-out: Inhibition of mycobacterial growth in culture (MICs)

Structure (SMILES)	MIC [1]	MIC [2, 5]	MIC [3]	MIC [2, 6]	MCC mammalian cells Vero E6 ATCC CRL1586 [4]
O=C(N[C@@H](Cc1ccccc1)C(=O)Nc1cc(F)ccc1N1CCNCC1)c1ccccc1F (racemic) [IX-214b]	12.5 µg/mL (≈ 26.9 µM)	6.25 µg/mL (≈ 13.5 µM)	12.5 µg/mL (≈ 26.9 µM)		
O=C(N[C@@H](Cc1ccccc1)C(=O)Nc1cc(Cl)ccc1N1CCNCC1)c1ccccc1F (racemic) [IX-274b]	6.25 µg/mL (≈ 13 µM)	6.25 µg/mL (≈ 13 µM)	6.25 µg/mL (≈ 13 µM)		
O=C(NC(Cc1ccccc1)C(=O)Nc1ccccc1F)c1ccccc1 [AAP3, Nα-benzoyl-N-(2-fluorophenyl)-D/L-phenylalaninamide]				1.56 µg/mL (≈ 4.3 µM)	
O=C(NC(Cc1ccccc1)C(=O)Nc1ccccc1)c1ccccc1 [AAP4, Nα-benzoyl-N-phenyl-D/L-phenylalaninamide]				0.78 µg/mL (≈ 2.26 µM)	
O=C(NC(Cc1ccccc1)C(=O)Nc1ccncc1)c1ccccc1 [AAP5, Nα-benzoyl-N-(4-pyridyl)-D/L-phenylalaninamide]				12.5 µg/mL (≈ 36.2 µM)	
O=C(NC(Cc1ccccc1)C(=O)Nc1ccccn1)c1ccccc1 (stereo not drawn) [AAP6]				1.56 µg/mL (≈ 4.52 µM)	
COc1cccc(NC(=O)C(Cc2ccccc2)NC(=O)c2ccccc2)c1C (stereo not drawn) [I-18]	> 50 µg/mL	0.78 µg/mL (≈ 2.01 µM)	> 50 µg/mL		>100 µg/mL
CCOc1cccc(C(=O)NC(Cc2ccccc2)C(=O)Nc2ccccc2C)c1 (stereo not drawn) [I-37]	> 50 µg/mL	25 µg/mL (≈ 62.1 µM)			5 µg/mL
CC(C)Oc1ccccc1NC(=O)C(Cc1ccccc1)NC(=O)c1ccccc1 (stereo not drawn) [I-50]	12.5 µg/mL (≈ 31.1 µM)	0.78 µg/mL (≈ 1.94 µM)	> 50 µg/mL		>100 µg/mL
Cc1c(NC(=O)C(Cc2ccccc2)NC(=O)c2ccccc2)cccc1OC(C)C (stereo not drawn) [I-51]	> 50 µg/mL	1.56 µg/mL (≈ 3.75 µM)	> 50 µg/mL		>100 µg/mL
O=C(NC(Cc1ccccc1)C(=O)Nc1ccccc1OC(F)F)c1ccccc1 (stereo not drawn) [I-61, N-(1-((2-(difluoromethoxy)phenyl)amino)-1-oxo-3-phenylpropan-2-yl)benzamide]	6.25 µg/mL (≈ 15.2 µM)	0.39 µg/mL (≈ 0.95 µM)	6.25 µg/mL (≈ 15.2 µM)		>100 µg/mL
Cc1ccccc1NC(=O)C(Cc1ccccc1)NC(=O)c1cccc(OC(F)F)c1 (stereo not drawn) [I-70]	6.25 µg/mL (≈ 14.7 µM)	50 µg/mL (≈ 118 µM)	> 50 µg/mL		90 µg/mL
Cc1c(F)cccc1NC(=O)C(Cc1ccccc1)NC(=O)c1ccccc1 (stereo not drawn) [I-73]	> 50 µg/mL	0.78 µg/mL (≈ 2.07 µM)	> 50 µg/mL		19 µg/mL
Cc1cccc(C(=O)NC(Cc2ccccc2)C(=O)Nc2ccccc2C)c1 (stereo not drawn) [I-113]	> 50 µg/mL	1.56 µg/mL (≈ 4.19 µM)			>100 µg/mL
CCc1cccc(C(=O)NC(Cc2ccccc2)C(=O)Nc2ccccc2C)c1 (stereo not drawn) [I-124]	> 50 µg/mL	25 µg/mL (≈ 64.7 µM)			>39 µg/mL
Cc1ccccc1NC(=O)C(Cc1ccc(N2CCOCC2)cc1)NC(=O)c1ccccc1 (stereo not drawn) [I-188]	25 µg/mL (≈ 56.4 µM)	6.25 µg/mL (≈ 14.1 µM)			35 µg/mL
Cc1c(NC(=O)C(Cc2ccccc2)NC(=O)c2ccccc2)cccc1-n1cncn1 (stereo not drawn) [I-204]	25 µg/mL (≈ 58.8 µM)	3.12 µg/mL (≈ 7.34 µM)			>100 µg/mL
O=C(NC(Cc1ccccc1)C(=O)Nc1ccccc1-n1ccnn1)c1ccccc1 (stereo not drawn) [I-214]	> 50 µg/mL	3.12 µg/mL (≈ 7.59 µM)			>100 µg/mL
Cc1c(NC(=O)C(Cc2ccccc2)NC(=O)c2ccccc2)cccc1-n1ccnn1 (stereo not drawn) [I-215]	> 50 µg/mL	3.12 µg/mL (≈ 7.34 µM)			>100 µg/mL
O=C(NC(Cc1ccccc1)C(=O)Nc1ccccc1-n1cnnn1)c1ccccc1 (stereo not drawn) [I-225]	> 50 µg/mL	6.25 µg/mL (≈ 15.2 µM)			>100 µg/mL

Structure (SMILES)	MIC [1]	MIC [2, 5]	MIC [3]	MIC [2, 6]	MCC mammalian cells Vero E6 ATCC CRL1586 [4]
Cc1c(NC(=O)C(Cc2ccccc2)NC(=O)c2ccccc2)cccc1-n1cnnn1 (stereo not drawn) [I-226]	> 50 µg/mL	0.78 µg/mL (≈ 1.83 µM)			>100 µg/mL
O=C(NC(Cc1ccc(O)cc1)C(=O)Nc1cccc2cnccc12)c1ccccc1 (stereo not drawn) [IX-19, N-(3-(4-hydroxyphenyl)-1-(isoquinolin-5-ylamino)-1-oxopropan-2-yl)benzamide]	6.25 µg/mL (≈ 15.2 µM)	0.39 µg/mL (≈ 0.948 µM)			42 µg/mL
Cc1ccccc1NC(=O)C(Cc1ccc(O)c(O)c1)NC(=O)c1ccccc1 (stereo not drawn) [IX-25, N-(3-(3,4-dihydroxyphenyl)-1-oxo-1-(o-tolylamino)propan-2-yl)benzamide]		1.56 µg/mL (≈ 4 µM)			21 µg/mL
Cc1ccc(Cl)cc1NC(=O)[C@@H](Cc1ccccc1)NC(=O)c1ccccc1F [IX-55a]	0.78 µg/mL (≈ 1.9 µM)	0.073 µg/mL (≈ 0.178 µM)	0.78 µg/mL (≈ 1.9 µM)		
Cc1ccc(Cl)cc1NC(=O)[C@H](Cc1ccccc1)NC(=O)c1ccccc1F [IX-55b]	> 50 µg/mL	25 µg/mL (≈ 60.8 µM)	> 50 µg/mL		
O=C(NC(Cc1ccccc1)C(=O)Nc1cccc2ncccc12)c1ccccc1F (stereo not drawn) [IX-58, 2-fluoro-N-(1-oxo-3-phenyl-1-(quinolin-5-ylamino)propan-2-yl)benzamide]		1.56 µg/mL (≈ 3.77 µM)			78 µg/mL
Cc1ccccc1NC(=O)C(Cc1ccc(O)cc1)NC(=O)c1ccccc1C (stereo not drawn) [IX-66, N-(3-(4-hydroxyphenyl)-1-oxo-1-(o-tolylamino)propan-2-yl)-2-methylbenzamide]	50 µg/mL (≈ 129 µM)	1.56 µg/mL (≈ 4.02 µM)			>100 µg/mL
O=C(NC(Cc1ccc(O)cc1)C(=O)Nc1cccc2c1OCO2)c1ccccc1Br (stereo not drawn) [IX-125, N-(1-(benzo[d][1,3]dioxol-4-ylamino)-3-(4-hydroxyphenyl)-1-oxopropan-2-yl)-2-bromobenzamide]	25 µg/mL (≈ 51.7 µM)	1.56 µg/mL (≈ 3.23 µM)	50 µg/mL (≈ 103 µM)		
CC(=O)N1CCN(c2ccccc2NC(=O)C(Cc2ccccc2)NC(=O)c2ccccc2)CC1 (stereo not drawn) [IX-236, N-(1-((2-(4-acetylpiperazin-1-yl)phenyl)amino)-1-oxo-3-phenyl-propan-2-yl)benzamide]	6.25 µg/mL (≈ 13.3 µM)	0.195 µg/mL (≈ 0.414 µM)	6.25 µg/mL (≈ 13.3 µM)		
CNC(=O)N1CCN(c2ccccc2NC(=O)C(Cc2ccccc2)NC(=O)c2ccccc2)CC1 (stereo not drawn) [IX-238, 4-(2-(2-benzamido-3-phenylpropanamido)phenyl)-N-methyl-piperazine-1-carboxamide]	1.56 µg/mL (≈ 3.21 µM)	0.195 µg/mL (≈ 0.402 µM)	1.56 µg/mL (≈ 3.21 µM)		
O=C(NC(Cc1ccccc1)C(=O)Nc1cc(F)ccc1N1CCN(CCO)CC1)c1cccs1 (stereo not drawn) [IX-247, N-(1-((5-fluoro-2-(4-(2-hydroxyethyl)piperazin-1-yl)phenyl)amino)-1-oxo-3-phenylpropan-2-yl)thiophene-2-carboxamide]	1.56 µg/mL (≈ 3.14 µM)	0.39 µg/mL (≈ 0.785 µM)	3.12 µg/mL (≈ 6.29 µM)		
COc1ccc(F)cc1NC(=O)C(Cc1ccccc1)NC(=O)c1ccccc1C (stereo not drawn) [IX-277, N-(1-((5-fluoro-2-methoxyphenyl)amino)-1-oxo-3-phenylpropan-2-yl)-2-methylbenzamide]	0.31 µg/mL (≈ 0.763 µM)	0.39 µg/mL (≈ 0.96 µM)	0.39 µg/mL (≈ 0.96 µM)		
Cn1ncc2c(NC(=O)C(Cc3ccccc3)NC(=O)c3ccccc3F)cccc21 (stereo not drawn) [IX-296, 2-fluoro-N-(1-((1-methyl-1H-indazol-4-yl)amino)-1-oxo-3-phenyl-propan-2-yl)benzamide]	1.56 µg/mL (≈ 3.75 µM)	0.78 µg/mL (≈ 1.87 µM)	1.56 µg/mL (≈ 3.75 µM)		
Cn1nnc2cccc(NC(=O)C(Cc3ccccc3)NC(=O)c3ccccc3F)c21 (stereo not drawn) [IX-300, 2-fluoro-N-(1-((1-methyl-1H-benzo[d][1,2,3]triazol-7-yl)amino)-1-oxo-3-phenylpropan-2-yl)benzamide]	6.25 µg/mL (≈ 15 µM)	1.56 µg/mL (≈ 3.74 µM)	6.25 µg/mL (≈ 15 µM)		
Cc1ccccc1C(=O)NC(Cc1ccccc1)C(=O)Nc1cccc2nnn(C)c12 (stereo not drawn) [IX-301, 2-methyl-N-(1-((1-methyl-1H-benzo[d][1,2,3]triazol-7-yl)amino)-1-oxo-3-phenylpropan-2-yl)benzamide]	6.25 µg/mL (≈ 15.1 µM)	0.39 µg/mL (≈ 0.943 µM)	3.13 µg/mL (≈ 7.57 µM)		
CC1CN(c2ccc(F)cc2NC(=O)C(Cc2ccccc2)NC(=O)c2ccccc2F)CCN1 (stereo not drawn) [IX-305, 2-fluoro-N-(1-((5-fluoro-2-(3-methylpiperazin-1-yl)phenyl)amino)-1-oxo-3-phenylpropan-2-yl)benzamide]	1.56 µg/mL (≈ 3.26 µM)	0.78 µg/mL (≈ 1.63 µM)	12.5 µg/mL (≈ 26.1 µM)		
NC1CCN(c2ccc(F)cc2NC(=O)C(Cc2ccccc2)NC(=O)c2ccccc2F)C1 (stereo not drawn) [IX-306, N-(1-((2-(3-aminopyrrolidin-1-yl)-5-fluorophenyl)amino)-1-oxo-3-phenylpropan-2-yl)-2-fluorobenzamide]		0.78 µg/mL (≈ 1.68 µM)			
O=C(NC(Cc1ccccc1)C(=O)Nc1cc(F)ccc1N1CC2CCCNC2C1)c1ccccc1F (stereo not drawn) [IX-307, 2-fluoro-N-(1-((5-fluoro-2-(octahydro-6H-pyrrolo[3,4-b]pyridin-6-yl)-phenyl)amino)-1-oxo-3-phenylpropan-2-yl)benzamide]	12.5 µg/mL (≈ 24.8 µM)	6.12 µg/mL (≈ 12.1 µM)	25 µg/mL (≈ 49.5 µM)		
CC1CN(c2ccc(F)cc2NC(=O)C(Cc2ccccc2)NC(=O)c2ccccc2F)CC(C)N1 (stereo not drawn) [IX-308, N-(1-((2-(3,5-dimethylpiperazin-1-yl)-5-fluorophenyl)amino)-1-oxo-3-phenylpropan-2-yl)-2-fluorobenzamide]	3.13 µg/mL (≈ 6.35 µM)	0.39 µg/mL (≈ 0.792 µM)	< 0.39 µg/mL		
